Patent US7323318B2, “Assay for distinguishing live and dead cells” (priority 2004, dated 2008)

Key:
population of cells = assay: Image-based live-dead cell assay using mean tubulin marker (DM1-α) intensity per cell
Description: FIG. 1 presents two images of cells: a left image of a control population of cells treated with DMSO, and a right image of a test population of cells treated with the compound carbonyl cyanide 3-chlorophenylhydrazone (herein CCCP), a poison which acts on the cellular respiratory pathway. After treatment with DMSO or CCCP, the cells were fixed and stained with multiple markers. Three of these markers are shown in the image: red indicates DNA, blue indicates tubulin, and green indicates the trans-Golgi network. […] Note that individual cells are identified (whether alive or dead) by a small red area in the central region. This red area is associated with DNA in the cell nucleus. […] This is not necessarily an indication that the dead cells have increased levels of Golgi.
FIG. 2 presents a flowchart depicting one method for producing a model that can be used to determine whether an individual cell is live or dead. As shown in a block 203, the method begins by preparing the cell populations that are to be used for imaging. In certain embodiments, a sandwich culture is employed. In this preliminary operation, some cell populations are treated as controls (assumed to have a high fraction of cells that are alive) and other cell populations are treated as test samples (assumed to have a significant fraction of cells that are dead). Upon completion of treatment, cells are fixed and stained with appropriate markers. The test cells will all have been treated with a compound or other stimulus known to kill a significant percentage of the cells in a given population. Together, the control and test cell populations provide relatively large numbers of live and dead cells. The size of these populations should be large enough to provide a training set sufficient to generate a model that can reliably distinguish live cells from dead cells.
An exemplary two-step segmentation process is illustrated in FIGS. 3A and 3B. FIG. 3A presents the result of the first step. As shown there, two images (the left one for a control population treated with DMSO and the right one for a test population treated with 2.5 μM CCCP) show nuclei circled in the interiors of individual cells. Cellular DNA was stained with Hoechst […], which emits fluorescence at a wavelength selectively collected in the FIG. 3A image to permit identification of the individual nuclei. Each such nucleus is presumed to belong to a separate cell.
FIG. 3B presents the results of the second step of the cell segmentation procedure. As shown, the cell populations of FIG. 3A are again presented, but this time at the Alexa 647 channel (i.e., the bright regions in the image locate the source of radiation emitted at the wavelength of Alexa 647). […] The cell boundaries so identified are circled within the images. Each cell boundary defines a collection of pixels that are deemed to belong to a particular cell. For image processing those pixels are used extracting information about the particular cell in question.
After the boundaries of each cell have been identified, the appropriate live-dead indicator feature can be extracted on a cell-by-cell basis. See block 209. As indicated above, the intensity of a marker for tubulin (an indicator of local tubulin concentration within the cell) can be identified for each pixel in a given cell. Each cell will be characterized on the basis of its level of tubulin, whether based on an average value over all pixels in the cell, a maximum or minimum value within the cell, or some other indicator of tubulin quantity. In a preferred embodiment, the mean tubulin marker intensity is calculated over the pixels in a cell and the resulting value is employed as the live-dead indicator feature.
Additional images are presented in FIG. 3C, highlighting the marker DM1-α for tubulin. […] Note that live and dead cells can be usually distinguished by visual inspection. […]

[1] = tested on: live cells and dead cells; assay: Total cell area in live and dead cells (pixel count within segmented boundary); type: cell-based; settings: FIG. 6B
Experimental: The area was determined from a pixel count within the boundary determined by segmentation. […] A simple consideration of the average cell area for all cells (including live cells and dead cells) would likely mask the fact that the higher concentrations of the drug cause dead cells to become progressively larger. The effect of the live cells masks, somewhat, the effect on the dead cells. […] Note that the average area of the live and dead cells together is shown as lines 611 in FIG. 6B. Note also that, as with the plot in FIG. 6A, the live cells were discriminated from dead cells using the mean DM1-α intensity of each cell.

[2] = tested on: TGN (trans-Golgi network); settings: FIG. 6C; increasing concentrations
Description: As with FIGS. 6A and 6B, the live-dead discrimination in FIG. 6C was made using mean DM1-α intensity (per cell).

N#CC(C#N)=NNc1cccc(Cl)c1 [CCCP, carbonyl cyanide 3-chlorophenylhydrazone]
number of cells with significant tubulin concentration versus DMSO control (population of cells; FIG. 1, fixed and stained cells, tubulin marker (blue)): far fewer cells with significant tubulin concentration | percentage of dead cells versus DMSO control population (population of cells; FIG. 3C, 2.5 μM CCCP, DM1-α tubulin channel): far higher percentage of dead cells | mean tubulin marker intensity per cell (histogram) versus control cells (population of cells; FIG. 4B, 0.625 μM to 5 μM CCCP for 24 hours, test cells pooled with control cells): a relatively large fraction of the cells have a mean tubulin marker intensity well below that associated with the control cells | concentration at which the number of live cells begins to decrease (population of cells; FIG. 6A, normalized concentration, decrease at roughly the same rate as the dead cell increase): about 0.5 μM | concentration at which the number of dead cells begins to increase dramatically (population of cells; FIG. 6A, normalized concentration, live/dead discriminated by mean DM1-α intensity, samples of around 800 cells): about 0.5 μM | total number of cells (number of objects, DNA spots) across concentrations (population of cells; FIG. 6A, three samples of around 800 cells each): remain approximately constant

O=C(O)Cc1ccccc1Nc1c(Cl)cccc1Cl [diclofenac]
total area of the live cells ([1]; beginning at approximately the same concentration (arbitrary 100)): gradually decreased | area of the dead cells ([1]; from the arbitrary concentration of 100 in the plot): begins to increase rather dramatically

Nc1c2c(nc3ccccc13)CCCC2 [tacrine]
Golgi (TGN) marker intensity signal in dead cells [2]: relatively minimal affect | mean Golgi (TGN) marker intensity signal in live cells [2]: dramatically increase
